Laboratory results from patent publication US11980648B2, “Compositions including ginsenoside 20(S)-Rg3 and methods of using ginsenoside 20(S)-Rg3 to inhibit alpha herpesvirus” (MIDDLE TENNESSEE STATE UNIVERSITY, priority 2020, dated 2024).
“And” between values parts separate entries of the source, which are not always exact repeats. Equal entries are not always repeated.

Key:
[1] = tested on: HSV-1; test: Virus inhibition, HSV-1 on Vero cells (PrestoBlue); type: cell-based, herpes simplex virus type 1 (MacIntyre strain); settings: at the non-toxic concentration of Table 1; MOI 0.1; compound and virus added simultaneously; parentheses = greater cell death than virus alone
Protocol: (§1) Viruses and Quantification. Herpes simplex virus type 1 (HSV-1, MacIntyre strain, ATCC, VR-539) or herpes simplex virus type 2 (HSV-2, ATCC, VR-734) were used in these studies. Virus titer was determined by plaque assay. Briefly, following 2 hour-adsorption of various virus dilutions onto a Vero cell monolayer in a 24-well plate, the medium was removed and cells were overlaid with 1.5% carboxymethylcellulose (Sigma Chemical Company, St. Louis, Mo.) and incubated 48 hours at 37° C. with 5% CO2. After incubation, cells were fixed with methanol, stained with Giemsa (Sigma Chemical Company, St. Louis, Mo.) and plaques were counted. Each virus dilution was prepared in quadruplicate.
(§2) Cytotoxicity and Virus Inhibition. All ginsenosides, isomers, and protopanaxadiols were evaluated for toxic effects on Vero cells prior to anti-viral testing. Cells were seeded at 5000 cells/well in a black 96-well plate with clear bottom in a volume of 100 μL and allowed to attach for 24 hours. The P. ginseng compounds were prepared in DMSO at 100 μM and were taken through serial two-fold dilutions to determine the concentration when the rate of cell death was less than 10% compared to control, untreated cells. Each dilution was tested in three wells and all assays were repeated three times. Following a 48 hour-incubation at 37° C. in 5% CO2, 11 μL of PrestoBlue (Invitrogen, Carlsbad, Calif.) was added to each well and the plate was incubated for an additional 30 minutes. PrestoBlue determines cell viability by changing from blue to red as resazurin is reduced to resorufin by viable cells. Following the PrestoBlue incubation, fluorescence was determined by spectrophotometric reading using Soft Max Pro (Molecular Diagnostics, San Jose, Calif., USA).
(§3) For cytotoxicity testing, 4 μL of dilutions of the ginsenosides or protopanaxadiols were added to 396 μL of medium 199 and 100 μL of this mixture was added to each of three wells. For anti-viral testing, 4 μL of the non-toxic reagent and 4 μL of HSV-1 or HSV-2 diluted to an MOI of 0.1 were added to 392 μL of medium 199 and 100 μL of this mixture was added to each of three wells. Virus inhibition was determined by comparing the cell death of reagent-exposed cells with cell death of control cells only receiving virus. The 50% inhibitory concentration (IC50) was determined through a series of two-fold dilutions and calculation by linear regression analysis.

[2] = tested on: Vero cells; test: Cytotoxicity on Vero cells (PrestoBlue); type: cell-based; settings: for Cytotoxicity (non-toxic concentration): concentration causing less than 10% cell death compared with controls, Vero cells, 48 hour incubation, tested from 100 μM in 2-fold dilutions
Protocol: Cells. Vero cells (American Type Culture Collection (ATCC), Manassas, VA, CCL-81) were maintained in medium 199 (Sigma Chemical Company, St. Louis, MO) that was supplemented with 8% fetal bovine serum (Invitrogen, Carlsbad, CA), 1.25 μg/mL fungizone (Invitrogen, Carlsbad, CA) and penicillin-streptomycin, 1000 U/mL and 1 mg/mL respectively (Sigma Chemical Company, St. Louis, MO). Cells were passed weekly using 0.1% trypsin (Sigma Chemical Company, St. Louis, MO) to detach the cells from the flasks. Cell quantification was done by trypan blue exclusion.
as §2, with “The P. ginseng compounds were prepared in DMSO at 100 μM and were taken through serial two-fold dilutions to determine the concentration when the rate of cell death was less than 10% compared to control, untreated cells.” left out
as §3

[3] = tested on: coxsackie B 3 virus; settings: 100 μg/mL; cited from earlier work
[4] = tested on: human rhinovirus 3; settings: 100 μg/mL; cited from earlier work
[5] = tested on: HSV-1; test: Plaque reduction of HSV-1 on Vero cell monolayer; type: cell-based, herpes simplex virus type 1 (MacIntyre strain); settings: valacyclovir 16 μM, 20(S)-Rg3 50 μM, about 50 PFU/well, 48 hours
Protocol: as §1
The plaque assay procedure also was used to evaluate the percent plaque reduction; the only procedural change was that a constant virus concentration was used (50 plaque forming units (PFU)/well). Plaque reduction was measured by comparing the control (virus only), with valacyclovir (16 μM) with virus or 20(S)-Rg3 (50 μM) with virus. Sample wells were evaluated in quadruplicate. Following the 2 hour-virus adsorption, the methylcellulose-medium containing the same concentrations of valacyclovir or Rg3 was added to the appropriate wells. After 48 hours, plaques were fixed, stained and counted.

[6] = tested on: HSV-1; test: Time studies of HSV-1 inhibition (PrestoBlue); type: cell-based, herpes simplex virus type 1; settings: Human alphaherpesvirus 1; HSV-1 incubated with compound 0 to 4 hours prior to addition to cells; valacyclovir 16 μM; read-out: percent inhibition of HSV-1
Protocol: Time Studies. For virus inhibition studies described above, reagent 20(S)-Rg3 and virus were added to cells simultaneously. To evaluate the potential mode of action of Rg3, various combinations of valacyclovir, Rg3 and HSV-1 were tested at different time periods. The following combinations were evaluated at both one hour and four hours: • Virus applied to cells first (for one hour or four hours), followed by addition of valacyclovir, Rg3 or both valacyclovir and Rg3 to the cells; • Valacyclovir or Rg3 or both valacyclovir and Rg3 applied to cells first (for one or four hours), followed by virus; • Valacyclovir or Rg3 incubated together with virus first for one or four hours then added to cells.
All procedures described for evaluation of virus inhibition were followed in identical fashion as outlined for the PrestoBlue procedure except valacyclovir was used at a constant concentration of 16 μM and 20(S)-Rg3 at 50 μM.

Molecule: 20(S)-Rh2
- Percent Inhibition of HSV-1 [1]: 46.2%

Molecule: CC(C)=CCC[C@@](C)(O)C1CC[C@]2(C)C1[C@H](O)CC1[C@@]3(C)CC[C@H](O[C@@H]4OC(CO)[C@@H](O)[C@@H](O)C4O[C@@H]4OC(CO)[C@@H](O)[C@@H](O)C4O)C(C)(C)C3CC[C@]12C (stereo partly drawn) [20(R)-Rg3, 20(R)-ginsenoside-Rg3]
- Percent Inhibition of HSV-1 [1]: 22.7%

Molecule: CC(C)=CCC[C@@](C)(O)[C@H]1CC[C@]2(C)[C@@H]1[C@H](O)C[C@@H]1[C@@]3(C)CC[C@H](O)C(C)(C)[C@@H]3CC[C@]12C [20(R)-protopanaxadiol, reference compound]
- Cytotoxicity (non-toxic concentration) [2]: 12.5 µM
- Percent Inhibition of HSV-1 [1]: 14.4%

Molecule: CC(C)=CCC[C@](C)(O)[C@H]1CC[C@]2(C)[C@@H]1[C@H](O)C[C@@H]1[C@@]3(C)CC[C@H](O)C(C)(C)[C@@H]3CC[C@]12C [20(S)-protopanaxadiol, reference compound]
- toxicity ([2]; 25 μM): non-toxic
- Cytotoxicity (non-toxic concentration) [2]: 12.5 µM

Molecule: CC(C)=CCC[C@](C)(O[C@@H]1O[C@H](CO[C@@H]2O[C@H](CO)[C@@H](O)[C@H](O)[C@H]2O)[C@@H](O)[C@H](O)[C@H]1O)[C@H]1CC[C@]2(C)[C@@H]1[C@H](O)C[C@@H]1[C@@]3(C)CC[C@H](O[C@@H]4O[C@H](CO)[C@@H](O)[C@H](O)[C@H]4O[C@@H]4O[C@H](CO)[C@@H](O)[C@H](O)[C@H]4O)C(C)(C)[C@@H]3CC[C@]12C [Rb1]
- Percent Inhibition of HSV-1 [1]: 23% and 23.3%

Molecule: CC(C)=CCC[C@](C)(O[C@@H]1O[C@H](CO[C@@H]2OC[C@H](O)[C@H](O)[C@H]2O)[C@@H](O)[C@H](O)[C@H]1O)[C@H]1CC[C@]2(C)[C@@H]1[C@H](O)C[C@@H]1[C@@]3(C)CC[C@H](O[C@@H]4O[C@H](CO)[C@@H](O)[C@H](O)[C@H]4O[C@@H]4O[C@H](CO)[C@@H](O)[C@H](O)[C@H]4O)C(C)(C)[C@@H]3CC[C@]12C [Rb2]
- Percent Inhibition of HSV-1 [1]: 26.4%

Molecule: CC(C)=CCC[C@](C)(O[C@@H]1O[C@H](CO[C@@H]2OC[C@@H](O)[C@H](O)[C@H]2O)[C@@H](O)[C@H](O)[C@H]1O)[C@H]1CC[C@]2(C)[C@@H]1[C@H](O)C[C@@H]1[C@@]3(C)CC[C@H](O[C@@H]4O[C@H](CO)[C@@H](O)[C@H](O)[C@H]4O[C@@H]4O[C@H](CO)[C@@H](O)[C@H](O)[C@H]4O)C(C)(C)[C@@H]3CC[C@]12C [Rb3]
- Percent Inhibition of HSV-1 [1]: 30.9%

Molecule: CC(C)=CCC[C@](C)(O[C@@H]1O[C@H](CO)[C@@H](O)[C@H](O)[C@H]1O)[C@H]1CC[C@]2(C)[C@@H]1[C@H](O)C[C@@H]1[C@@]3(C)CC[C@H](O)C(C)(C)[C@@H]3[C@@H](O[C@@H]3O[C@H](CO)[C@@H](O)[C@H](O)[C@H]3O)C[C@]12C [Rg1]
- Percent Inhibition of HSV-1 [1]: 13.2%

Molecule: CC(C)=CCC[C@](C)(O)[C@H]1CC[C@]2(C)[C@@H]1[C@H](O)C[C@@H]1[C@@]3(C)CC[C@H](O)C(C)(C)[C@@H]3[C@@H](O[C@@H]3O[C@H](CO)[C@@H](O)[C@H](O)[C@H]3O[C@@H]3O[C@@H](C)[C@H](O)[C@@H](O)[C@H]3O)C[C@]12C [Rg2]
- effect on coxsackie B 3 virus [3]: inhibitory effects
- effect on human rhinovirus 3 [4]: inhibitory effects

Molecule: CC(C)[C@H](N)C(=O)OCCOCn1cnc2c(=O)[nH]c(N)nc21 [Valacyclovir, reference compound]
- Percent Cell Death ([2]; African green monkey, 48 h, 16 μM): 1.2±0.4%
- Percent Reduction of plaques compared to the control [5]: 85.7%
- Number of Plaques ([5]; ± standard error): 8.1 ± 1.1
- inhibition at 16 µM [6]: 52.3 to 54.7%
